Data reported in US12377069B2, “Compounds, compositions, methods of using, and methods for preparing compounds” (UNIVERSITY OF LOUISVILLE RESEARCH FOUNDATION, INC., priority 2018, dated 2025).

Legend:
C57BL/6N mice = experiment: Chronic ALD mouse model; type: in vivo; settings: 20 mg/kg orally every other day, 4 weeks
Description: FIG. 18: UAS03 mitigates chronic ALD. (A) C57BL/6 mice (10 wk old age) were used in chronic ALD models and analyzed after 4 weeks as described. Pair fed (n=5/group) and EtOH fed (n=10/group) mice were treated with Veh (0.25% CMC) and UAS03 (20 mg/kg) alternate day for 4 weeks. (B) Gross images of colons (C) colon lengths (D) In vivo permeability using FITC-Dextran was measured. (E) Serum ALT, AST, endotoxin, IL-6, TNF-α were measured using ELISA methods. (F) H&E sections (20×) of liver are shown. Scale bar is 100 μm. Fat droplets (white) are visible in EtOH group. (G) The levels of triglycerides (TGs), IL-6, TNF-α and myeloperoxidase (MPO) were measured in liver tissues. (H) Immunoblot of Ocln expression in ileum tissues (n=3) from mice fed with EtOH treated with Veh or UAS03. Error bars, ±SEM. Statistics were performed using 2way ANOVA multiple comparisons. * p<0.05, ** p<0.01, *** p<0.001.
Male C57BL/6N (10 week age old) were purchased from Jackson Laboratory and were acclimatized with pair fed liquid diet (Lieber DeCarli) for 1 week. After acclimatization, animals were fed with pair fed (n=5 mice/group) and alcohol diet (n=10 mice/group). Briefly, mice were fed with diet containing 17% of energy as protein, 40% as corn oil, 7.5% as carbohydrate, and 35.5% as either alcohol (5% v/w, alcohol-fed, AF) or isocaloric maltose dextrin (pair-fed, PF). Before mice went on to 5% alcohol diet, alcohol concentration was ramped from 1.6% (3 days) to 3.6% (3 days) and finally 5% for next 4 weeks. UAS03 group animals received UAS03 orally (20 mg/kg/day) on every other day after start of alcohol diet (FIG. 18A). We used 0.25% sodium carboxymethyl cellulose (CMC) as vehicle treatment. The mice were euthanized after 4 weeks and measured colon lengths (FIG. 18B-C), in vivo gut permeability (FITC-dextran assay), serum ALT, AST, endotoxin, IL-6 and TNF-α (FIG. 18E).

[1] = system: colon cancer cell line (SW480); settings: human
C57BL/6 mice [2] = experiment: Acute (binge) alcohol ALD model; type: in vivo, mouse
Description: FIG. 15: UroA treatment reduces binge EtOH-induced ALD. (A) Acute alcohol model: Female wild type (C547BL/6) mice (n=6/group) were oral gavaged with alcohol (5 g/kg) at 0, 12 and 24 h. Mice were treated with Veh (0.25% CMC) or UroA (20 mg/kg) at 2, 14 and 26 h. Mice were euthanized at 32 h. (B) In vivo permeability was measured by determining serum levels of FITC-Dextran post 4 h oral gavage of FITC-dextran (C) Fecal albumin was measured using standard ELISA. (D-I) Indicated serum cytokines/markers levels were measured in serum using standard ELISA. (J) The levels of triglycerides (TGs) in liver were measured using ELISA methods. Error bars, ±SEM. Statistics were performed using 2 way ANOVA multiple comparisons. * p<0.05, ** p<0.01, *** p<0.001.
Treatment with UroA mitigates acute and chronic alcohol liver disease. To examine therapeutic efficacies of UroA in ALD, we adopted acute mouse model as developed by Gao B group (NIAAA) (BERTOLA et al., (2013) “Mouse model of chronic and binge ethanol feeding (the NIAAA model)” Nat Protoc. Vol. 8, No. 3, pp. 627-637). We tested therapeutic efficacies of UroA in this model.

P-glycoprotein (P-gp) = P-glycoprotein (P-gp) (Homo sapiens, UniProt P08183)
Sequence of P-glycoprotein (P-gp) (P08183 whole entry): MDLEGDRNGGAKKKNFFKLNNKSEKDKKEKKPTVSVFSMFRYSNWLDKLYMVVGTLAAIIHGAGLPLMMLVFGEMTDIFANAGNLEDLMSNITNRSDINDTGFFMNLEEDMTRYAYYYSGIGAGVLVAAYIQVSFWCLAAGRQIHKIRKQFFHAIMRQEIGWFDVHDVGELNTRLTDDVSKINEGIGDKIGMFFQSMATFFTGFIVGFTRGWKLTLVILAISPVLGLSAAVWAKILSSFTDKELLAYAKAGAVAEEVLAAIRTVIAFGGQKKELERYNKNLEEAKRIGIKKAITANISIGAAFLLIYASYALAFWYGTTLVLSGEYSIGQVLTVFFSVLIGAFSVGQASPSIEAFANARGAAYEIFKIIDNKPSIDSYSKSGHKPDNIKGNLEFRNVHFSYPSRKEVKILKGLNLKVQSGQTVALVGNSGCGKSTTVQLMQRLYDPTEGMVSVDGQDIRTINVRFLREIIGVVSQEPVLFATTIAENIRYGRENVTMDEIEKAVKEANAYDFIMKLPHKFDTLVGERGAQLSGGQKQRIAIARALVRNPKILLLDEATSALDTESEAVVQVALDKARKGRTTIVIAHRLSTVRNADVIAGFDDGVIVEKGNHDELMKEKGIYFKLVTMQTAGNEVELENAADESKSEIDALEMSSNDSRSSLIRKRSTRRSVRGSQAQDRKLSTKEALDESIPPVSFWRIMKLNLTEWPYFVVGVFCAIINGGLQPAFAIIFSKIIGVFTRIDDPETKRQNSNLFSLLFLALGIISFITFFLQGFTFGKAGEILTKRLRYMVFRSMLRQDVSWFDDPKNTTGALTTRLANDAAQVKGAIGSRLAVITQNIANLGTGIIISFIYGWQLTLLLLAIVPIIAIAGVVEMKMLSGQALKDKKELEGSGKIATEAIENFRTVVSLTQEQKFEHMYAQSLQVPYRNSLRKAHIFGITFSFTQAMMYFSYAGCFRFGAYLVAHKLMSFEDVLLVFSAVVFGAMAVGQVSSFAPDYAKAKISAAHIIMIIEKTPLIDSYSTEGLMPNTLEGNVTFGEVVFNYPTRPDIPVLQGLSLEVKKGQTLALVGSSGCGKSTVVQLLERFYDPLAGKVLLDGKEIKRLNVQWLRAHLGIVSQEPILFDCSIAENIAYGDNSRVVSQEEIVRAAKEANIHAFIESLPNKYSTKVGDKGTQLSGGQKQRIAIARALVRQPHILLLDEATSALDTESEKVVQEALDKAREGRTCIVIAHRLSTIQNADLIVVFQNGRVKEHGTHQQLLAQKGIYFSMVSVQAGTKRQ
Description: Therefore, blocking its activity and/or downregulating the expression of BCRP, P-gp could reverse the effect and sensitize the cancer cells.

T84 cells = experiment: EtOH-induced internalization of junction proteins; type: cell-based; settings: 50 μM 1 h, then EtOH 40 mM 6 h
Description: The membrane and cytosolic fractions were isolated and evaluated for tight junction (TJ) and adherins junction (AJ) and desmosomes. […] (i.e., EtOH treatment alone has more cytosolic protein and EtOH+UroA has more membrane fraction) (FIG. 20).

AhR^−/− mice = experiment: Acute ALD model in AhR^−/− mice; type: in vivo, mouse; settings: 20 mg/kg at 2, 14 and 26 h
Description: FIG. 19: UroA treatment failed in AhR^−/− mice to protect against binge EtOH-induced ALD. C547BL/6 and AhR^−/− mice (n=4/group) were oral gavaged with alcohol (2.5 g/kg) at 0, 12 and 24 h. Mice were treated with Veh (0.25% CMC) or UroA (20 mg/kg) at 2, 14 and 26 h. Mice were euthanized at 32 h. The Fecal albumin was measured using standard ELISA. Serum endotoxin, TNF-α, ALT as well as liver ALT and TG levels using ELISA methods. Error bars, ±SEM. Statistics were performed using 2way ANOVA multiple comparisons. * p<0.05, ** p<0.01, *** p<0.001.
AhR has a role for UroA mediated protection in ALD model: To address the role of AhR expression for UroA mediated activities, we performed acute ALD models in C57BL/6J mice and AhR^−/− mice. In this experiment, mice (WT, AhR^−/− mice (n=4/group)) were treated with half the dose of EtOH (2.5 g/kg) at 0, 12 and 24 h followed by oral treatment Veh (0.25% CMC) or UroA (20 mg/kg) at 2, 14 and 26 h.

colon cancer cells = experiment: Clonogenic and wound healing assays; type: cell-based
C57BL/6 mice [3] = experiment: Chronic low dose alcohol model; type: in vivo, mouse; settings: 20 mg/kg orally 2 h prior to EtOH 3 g/kg twice daily, 5 days
Description: C57BL/6 mice (10 wk old age) were used in low dose chronic ALD models. Mice were treated with EtOH (3 g/kg) daily twice orally for 5 days at 3 g/kg, UroA (20 mg/kg) was given orally 2 h prior to EtOH treatment. Mice were euthanized on day 6 and analyzed the indicated parameters. Error bars, ±SEM. Statistics were performed using 2 way ANOVA multiple comparisons. * p<0.05, ** p<0.01, *** p<0.001.
C57BL/6 mice (n=5 per group) were treated with EtOH (3 g/kg) twice daily orally for 5 days. UroA (20 mg/kg) was given orally 2 h prior to EtOH treatment. We evaluated gut permeability and inflammation parameters both in serum and liver (FIG. 17).

| Compound | deterioration of Ocln in the gut (C57BL/6N mice) | liver fat deposition (histopathology) (C57BL/6N mice) | liver inflammation (IL-6, TNF-α, MPO) and TG levels (C57BL/6N mice) | cell viability in combination with 5FU [1] | TJ protein (ZO-1) disruption at intestines (C57BL/6 mice [2]; 20 mg/kg) | TG accumulation in liver (C57BL/6 mice [2]; 20 mg/kg at 2, 14 and 26 h) | circulating serum ALT, AST levels (C57BL/6 mice [2]; 20 mg/kg at 2, 14 and 26 h) | systemic inflammation (serum IL-6, TNF-α, IL-1β, endotoxins) (C57BL/6 mice [2]; 20 mg/kg at 2, 14 and 26 h) | drug efflux activity of P-glycoprotein (P-gp) (P-glycoprotein (P-gp)) | efflux of Rh123 (P-glycoprotein (P-gp); 50 μM) | EtOH-induced internalization of membrane junction proteins to cytosol (T84 cells) | TG levels in AhR^−/− mice (AhR^−/− mice) | EtOH-induced gut leakage, serum endotoxins, TNF-α, ALT, liver ALT in AhR^−/− mice (AhR^−/− mice; EtOH 2.5 g/kg) | colon cancer cell colony formation (clonogenic assay) (colon cancer cells) | cell growth and migration into scratch (wound healing assay) (colon cancer cells; in combination with 5FU) | chronic low dose alcohol induced gut barrier dysfunction and inflammation (C57BL/6 mice [3]) |
| --- | --- | --- | --- | --- | --- | --- | --- | --- | --- | --- | --- | --- | --- | --- | --- | --- |
| Oc1ccc2c(c1)COc1cc(O)ccc1-2 [UAS03, 6H-benzo[c]chromene-3,8-diol] | protected from deterioration of Ocln | reduced liver fat deposition | down regulated liver inflammation and TG levels |  |  |  |  |  |  |  |  |  |  |  |  |  |
| O=c1oc2cc(O)ccc2c2ccc(O)cc12 [UroA, 3,8-dihydroxy-6H-dibenzo[b,d]pyran-6-one] |  |  |  | 69% | protects against TJ protein (ZO-1) disruption | reduced TG accumulation in liver | reduced | reduced | decreased drug efflux activities | blocked efflux of Rh123 | protected from EtOH-induced internalization | down regulated TG levels | did not appear to rescue | reduced | inhibited cell growth and migration | protects against |
